Each block holds one molecule with its values, some of them ahead of it.
Columns and labels:
[1] = target: T1, PKD1L3/PKD2L1 (Mus musculus, UniProt A2A259+Q2EG98, I1053S/I114V/I482V/L203V/Q202H/Y438D); assay: Calcium imaging (fluo-4/fura-red) of HEK293T cells transiently co-expressing PKD1L3 and PKD2L1; type: cell-based, murine; conditions: for calcium response upon stimulation: pH 2.6
T1 construct: HA (N); expressed in transfected cells; host or cells: HEK293T

[2] = at the same pH (Ganzevles and Kroeze, 1987; Makhlouf and Bum, 1972); cited from earlier work
[3] = tested on: either PKD1L3 or PKD2L1, or neither of them; assay: Calcium imaging of HEK293T cells expressing PKD1L3 or PKD2L1 alone, or neither; type: cell-based, murine; conditions: treated with citric acid
[4] = tested on: taste cells; conditions: cited from earlier work
[5] = cells expressing both PKD1L3 and PKD2L1, citric acid 25 mM, hydrochloric acid at the same pH

T1 sequence (Q2EG98 21-2151 I1053S): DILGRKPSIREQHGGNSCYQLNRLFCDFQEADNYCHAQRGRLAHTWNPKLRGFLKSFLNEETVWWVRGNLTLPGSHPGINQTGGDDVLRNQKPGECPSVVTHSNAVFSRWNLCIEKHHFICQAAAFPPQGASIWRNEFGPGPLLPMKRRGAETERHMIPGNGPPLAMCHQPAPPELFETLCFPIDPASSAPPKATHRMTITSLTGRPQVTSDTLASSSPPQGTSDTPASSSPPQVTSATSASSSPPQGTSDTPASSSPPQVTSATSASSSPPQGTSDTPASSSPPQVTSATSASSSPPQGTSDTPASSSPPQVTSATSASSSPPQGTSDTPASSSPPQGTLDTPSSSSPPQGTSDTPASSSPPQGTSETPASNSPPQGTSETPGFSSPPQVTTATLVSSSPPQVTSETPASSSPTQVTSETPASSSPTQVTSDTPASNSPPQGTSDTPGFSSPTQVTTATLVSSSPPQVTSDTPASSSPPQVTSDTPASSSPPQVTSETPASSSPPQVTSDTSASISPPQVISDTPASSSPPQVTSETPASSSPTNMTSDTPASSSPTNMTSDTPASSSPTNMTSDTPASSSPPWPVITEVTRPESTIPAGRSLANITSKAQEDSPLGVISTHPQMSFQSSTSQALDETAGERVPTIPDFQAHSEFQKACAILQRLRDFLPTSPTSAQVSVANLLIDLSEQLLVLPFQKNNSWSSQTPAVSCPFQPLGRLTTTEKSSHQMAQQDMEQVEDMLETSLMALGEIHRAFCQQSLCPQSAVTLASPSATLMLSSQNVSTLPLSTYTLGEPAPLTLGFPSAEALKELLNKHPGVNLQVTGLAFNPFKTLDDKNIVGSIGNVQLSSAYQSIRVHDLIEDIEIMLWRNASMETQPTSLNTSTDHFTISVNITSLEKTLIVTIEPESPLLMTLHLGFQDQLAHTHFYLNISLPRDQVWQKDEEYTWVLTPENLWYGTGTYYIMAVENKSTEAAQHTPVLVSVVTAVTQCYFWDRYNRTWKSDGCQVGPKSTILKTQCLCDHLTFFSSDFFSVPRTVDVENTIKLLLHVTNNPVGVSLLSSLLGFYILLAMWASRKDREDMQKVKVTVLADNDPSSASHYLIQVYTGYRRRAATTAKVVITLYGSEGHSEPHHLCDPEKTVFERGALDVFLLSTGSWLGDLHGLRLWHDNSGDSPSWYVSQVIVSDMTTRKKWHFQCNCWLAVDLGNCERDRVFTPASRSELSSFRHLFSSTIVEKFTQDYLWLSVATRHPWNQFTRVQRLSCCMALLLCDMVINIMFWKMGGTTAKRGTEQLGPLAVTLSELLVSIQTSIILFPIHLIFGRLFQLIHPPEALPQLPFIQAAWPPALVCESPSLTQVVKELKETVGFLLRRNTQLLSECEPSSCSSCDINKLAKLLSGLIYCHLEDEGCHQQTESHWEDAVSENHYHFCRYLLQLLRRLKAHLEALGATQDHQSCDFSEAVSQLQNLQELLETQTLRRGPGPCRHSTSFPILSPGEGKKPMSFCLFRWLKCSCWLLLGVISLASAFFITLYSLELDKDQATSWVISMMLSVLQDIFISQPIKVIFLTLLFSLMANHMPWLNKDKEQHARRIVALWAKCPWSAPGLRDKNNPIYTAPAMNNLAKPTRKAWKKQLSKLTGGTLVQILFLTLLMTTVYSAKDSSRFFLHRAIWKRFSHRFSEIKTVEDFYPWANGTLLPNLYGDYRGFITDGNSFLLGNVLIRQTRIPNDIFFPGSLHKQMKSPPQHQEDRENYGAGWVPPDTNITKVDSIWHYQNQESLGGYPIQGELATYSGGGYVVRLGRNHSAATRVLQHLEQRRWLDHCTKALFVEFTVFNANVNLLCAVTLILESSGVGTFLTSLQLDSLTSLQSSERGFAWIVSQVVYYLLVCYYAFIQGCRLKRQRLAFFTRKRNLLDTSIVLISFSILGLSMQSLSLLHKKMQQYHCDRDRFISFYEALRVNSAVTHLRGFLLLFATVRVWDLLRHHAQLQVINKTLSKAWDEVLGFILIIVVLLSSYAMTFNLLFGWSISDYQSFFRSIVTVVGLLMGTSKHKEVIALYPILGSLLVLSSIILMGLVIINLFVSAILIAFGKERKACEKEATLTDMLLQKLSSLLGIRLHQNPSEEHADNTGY
T1 sequence (A2A259 whole entry I114V/Q202H/L203V/Y438D/I482V): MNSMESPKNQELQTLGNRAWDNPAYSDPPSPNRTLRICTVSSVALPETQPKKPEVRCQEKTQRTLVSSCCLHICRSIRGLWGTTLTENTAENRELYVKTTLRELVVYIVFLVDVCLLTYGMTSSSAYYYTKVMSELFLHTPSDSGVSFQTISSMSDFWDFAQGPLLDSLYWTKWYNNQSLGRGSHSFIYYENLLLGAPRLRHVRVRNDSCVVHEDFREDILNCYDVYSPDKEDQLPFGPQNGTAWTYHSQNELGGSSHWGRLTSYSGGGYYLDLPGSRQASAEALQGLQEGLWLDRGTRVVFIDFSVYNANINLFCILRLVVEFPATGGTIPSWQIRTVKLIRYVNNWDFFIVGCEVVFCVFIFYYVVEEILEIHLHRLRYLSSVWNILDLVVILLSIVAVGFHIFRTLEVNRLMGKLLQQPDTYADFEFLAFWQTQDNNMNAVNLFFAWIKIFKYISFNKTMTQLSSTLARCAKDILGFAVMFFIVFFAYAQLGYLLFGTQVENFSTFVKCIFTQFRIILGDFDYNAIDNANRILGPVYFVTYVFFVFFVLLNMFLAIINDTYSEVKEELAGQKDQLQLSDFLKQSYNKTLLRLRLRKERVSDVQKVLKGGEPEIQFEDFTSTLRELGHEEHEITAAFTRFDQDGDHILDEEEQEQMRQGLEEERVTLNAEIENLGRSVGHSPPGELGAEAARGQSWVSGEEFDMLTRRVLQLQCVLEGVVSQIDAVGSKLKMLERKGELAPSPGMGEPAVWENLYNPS

Structure (SMILES): [Cl-].[Na+] [NaCl]
calcium response upon stimulation [1]: did not respond

Structure (SMILES): CC(=O)O [acetic acid]
sour taste relative to hydrochloric acid [2]: more sour than hydrochloric acid

Structure (SMILES): C[C@@H]1C[C@@H]([C@H](O)CC2CC(=O)NC(=O)C2)C(=O)[C@@H](C)C1 [cyclohexamide]
calcium response upon stimulation [1]: did not respond

Structure (SMILES): Cl [hydrochloric acid]
calcium response upon stimulation [1]: much less of a calcium response

Further lines, with some results ahead:

inhibition of function of the two protein heteromer ([1]; ASIC inhibitor / HCN inhibitor applied): not inhibited
Structure (SMILES): N=C(N)NC(=O)c1nc(Cl)c(N)nc1N [amiloride]

potency in activating PKD1L3/PKD2L1 heteromers relative to hydrochloric acid ([1]; at the same pH): more potent than hydrochloric acid | calcium response upon stimulation [1, 5]: responded | calcium response with extracellular calcium ions eliminated from the bath solution ([1]; cells expressing both proteins, no extracellular calcium): abolished
Structure (SMILES): O=C(O)CC(O)(CC(=O)O)C(=O)O [citric acid]
calcium response upon stimulation [3]: little or no calcium response | taste cells activated ([4]; calcium imaging of taste bud slices (Caicedo et al., 2002; Richter et al., 2003)): 23-25% | potency as sour ligand relative to hydrochloric acid ([4]; mouse taste tissue slices, same pH (Richter et al., 2003)): more potent sour ligand than hydrochloric acid | sour taste relative to hydrochloric acid [2]: more sour than hydrochloric acid

calcium response upon stimulation [1, 5]: did not respond
Structure (SMILES): C=C[C@H]1C[N@@]2CC[C@H]1C[C@H]2[C@H](O)c1ccnc2ccc(OC)cc12 [quinine]

calcium response upon stimulation [1, 5]: did not respond
Structure (SMILES): O=C1NS(=O)(=O)c2ccccc21 [saccharin]

calcium response upon stimulation [1, 5]: did not respond
Structure (SMILES): OC[C@H]1O[C@@](CO)(O[C@H]2O[C@H](CO)[C@@H](O)[C@H](O)[C@H]2O)[C@@H](O)[C@@H]1O [sucrose]
